The source of these data is US20130072472A1, “N[…] ANSOLVATES” (DemeRx, Inc., priority 2011, published 2013).

Structures are written as SMILES. Counter-ions that a name gives are not always drawn. A value given as a limit tells only on which side of the number the result lay.

Common to all, as to assay type: physicochemical
The nature of series [1]: Approximate aqueous solubility of noribogaine salt forms. Conditions: water.
Series [2] can be described thus: Thermogravimetric analysis (TGA). The conditions noted are these: for TGA sharp weight loss / onset of probable decomposition: TGA thermogram. The method, then:
Thermogravimetric analyses were performed using a TA Instruments Q5000 IR thermogravimetric analyzer. Temperature calibration was performed using nickel and Alumel™ Each sample was placed in an aluminum pan. The sample was hermetically sealed, the lid pierced, then inserted into the TO furnace. The furnace was heated under nitrogen.

Series [3] can be described thus: Dynamic vapor sorption (DVS). Conditions: for State of the solids after DVS sorption/desorption: post-DVS, 5 to 95 to 5% RH. The method, then: Dynamic vapor sorption (DVS) data were collected on a VTI SOA-100 Vapor Sorption Analyzer. NaCl and PVP were used as calibration standards. Samples were not dried prior to analysis. Sorption and desorption data were collected over a range from 5 to 95% RH at 10% RH increments under a nitrogen purge. The equilibrium criterion used for analysis was less than 0.0100% weight change in 5 minutes with a maximum equilibration time of 3 hours. Data were not corrected for the initial moisture content of the samples.

Series [4] is described as follows: Drying of solvated forms, gravimetric weight loss and XRPD. The conditions noted are these: for gravimetric weight loss: hydrochloride. The protocol:
Two other moisture absorbing, unstable, polymorphs of noribogaine hydrochloride, Forms F and G, which had mutually similar XRPD patterns were also identified. Form G was isolated from a slurry of Form A in MeOH at ambient temperature. Material G likely contains MeOH and water, and Form F (or Form II) is likely hydrated. […] A sharp weight loss at ˜312° C. indicated likely decomposition. Both Forms G and F are contemplated to readily pick up moisture from the atmosphere.

A short description of series [5]: Polymorphic conversion of solvated form on stirring in EtOH/water or heating. The source says: Such a desolvation is surprising, given that it occurs upon stirring in another solvent, which comprises hydroxy groups and alkyl moieties as in MeOH. As described above, form F is a solvated polymorph that is obtained from MeOH.
The nature of series [6]: Approximate ambient-temperature solubility, solvent addition method. Conditions: thermodynamic from solid. The method, then:
The approximate ambient-temperature solubilities of noribogaine hydrochloride Form A were measured in a variety of solvents and solvent mixtures using the solvent addition method (Table 2).
The solubility of noribogaine hydrochloride ansolvate were determined as tabulated below.

For `CC[C@H]1CC2C[C@H]3c4[nH]c5ccc(O)cc5c4CCN(C2)C13` [Sulfate, Form D, noribogaine sulfate ansolvate], the “Approx. Aqueous Solubility” value in series [1] was greater than 80000 µg/mL. In addition, in series [2], the “TGA sharp weight loss / onset of probable decomposition” value (“TGA sharp weight loss / onset” below) was “approximately 274 °C”. The TGA weight loss in series [2] (from approximately 160 to 245° C.) is recorded as 4.9 wt %. The DVS weight gain result is recorded as “approximately 26 wt %” in series [3] (between 75 and 95% RH); “about 0.7 wt %” in series [3] (up to 75% RH). In addition, the “State of the solids after DVS sorption/desorption” value in series [3] (listed as sulfate salt) is recorded as “deliquesced”.

Consider `CC[C@H]1CC2C[C@H]3c4[nH]c5ccc(O)cc5c4CCN(C2)C13` [Form G, noribogaine hydrochloride], for which the “Polymorphic form after weight loss, by XRPD” value in series [4] is on record as “converted to Form A”. Besides, in series [4] (listed as material G), the gravimetric weight loss is 7.95%.

In the case of `CC[C@H]1CC2C[C@H]3c4[nH]c5ccc(O)cc5c4CCN(C2)C13` [Tosylate, Form B, tosylate salt of noribogaine], in series [1], the “Approx. Aqueous Solubility” value was 3000 µg/mL.

As for `CC[C@H]1CC2C[C@H]3c4[nH]c5ccc(O)cc5c4CCN(C2)C13` [Form F, noribogaine hydrochloride], the gravimetric weight loss in series [4] is given as 4.1%. Moreover, the “TGA sharp weight loss / onset” value in series [2] (hydrochloride) is roughly 312 °C. For the same molecule, the “Polymorphic form change upon heating” value in series [5] (heating) is listed as “converts to the ansolvate form A”. The “Polymorphic form change upon stirring” value in series [5] (stirring in 9:1 ethyl alcohol and water) is given as “converted to the ansolvate form A”.

As to `CC[C@H]1CC2C[C@H]3c4[nH]c5ccc(O)cc5c4CCN(C2)C13` [Phosphate, Form C, noribogaine phosphate], the “Approx. Aqueous Solubility” value in series [1] is 23000 µg/mL. In addition, the “TGA sharp weight loss / onset” value in series [2] came out at 241 °C. The TGA weight loss result in series [2] (from 30 to 140° C.) is “approximately 1.6%”. Also, in series [3] (between 5 and 95% RH), the DVS weight gain entry is “approximately 3.3 wt %”. Moreover, in series [3] (equilibration to 5% RH), the “DVS weight loss upon equilibration” value is listed as “approximately 1 wt %”. Also, the “State of the solids after DVS sorption/desorption” value in series [3] is “remained Form C”.

Turning to `CC[C@H]1CC2C[C@H]3c4[nH]c5ccc(O)cc5c4CCN(C2)C13` [HCl, Form A, noribogaine hydrochloride], in series [1] (hydrochloride), the “Approx. Aqueous Solubility” value fell in the range of 1000 to 4000 µg/mL. In addition, the “TGA sharp weight loss / onset” value in series [2] (listed as Form A, hydrochloride) was roughly 316 °C. For the same molecule, the TGA weight loss entry in series [2] (prior to ~316° C.) is reported as “negligible weight loss”. Moreover, the solubility (in general, the concentration that dissolves in the medium under given conditions) in series [6] (aqueous with cosolvent or surfactant or cyclodextrin, ACN:water 80:20, ambient temperature) is 9000 µg/mL; in series [6] (aqueous with cosolvent or surfactant or cyclodextrin, Acetone:water 50:50, ambient temperature) it was 11000 µg/mL; in series [6] (aqueous with cosolvent or surfactant or cyclodextrin, TFE:water 50:50, ambient temperature), 10000 µg/mL; in series [6] (organic solvent or mixture, Acetone, ambient temperature) it was less than 1000 µg/mL; in series [6] (organic solvent or mixture, CAN, ambient temperature), less than 1000 µg/mL; in series [6] (organic solvent or mixture, EtOAc, ambient temperature), less than 1000 µg/mL. For the same molecule, the solubility is less than 1000 µg/mL in series [6] (organic solvent or mixture, EtOH, ambient temperature); 10000 µg/mL in series [6] (organic solvent or mixture, HFIPA, ambient temperature); 2000 µg/mL in series [6] (organic solvent or mixture, MeOH, ambient temperature); 1000 µg/mL in series [6] (organic solvent or mixture, MeOH:THF 50:50, ambient temperature); 4000 µg/mL in series [6] (organic solvent or mixture, TFE, ambient temperature); less than 1000 µg/mL in series [6] (organic solvent or mixture, THF, ambient temperature). Further, the solubility in series [6] (organic solvent or mixture, chloroform, ambient temperature) was less than 1000 µg/mL; in series [6] (organic solvent or mixture, chloroform:EtOH 50:50, ambient temperature), less than 1000 µg/mL; in series [6] (organic solvent or mixture, p-dioxane, ambient temperature), less than 1000 µg/mL; in series [6] (Water, added all at once, stirred ~24 hours), less than 4000 µg/mL. Also, the DVS weight gain/loss entry in series [3] (between 5 and 95% relative humidity) is reported as “approximately 0.03%”.
